Assay results reported in patent publication US7541044B2, “Administration of 5T4 antigen and immune response of cells expressing 5T4 and CEA antigens” (priority 2004, dated 2009).

How the values were obtained:
[1] = Adverse events, NCI-common toxicity criteria (BC1); assay type: in vivo, human; conditions: attributed to oral cyclophosphamide
Description: Further assessment was performed in out-patients on day 7. Biopsy of the injected tumour nodules was performed under local anaesthetic. The biopsies were snap-frozen in liquid nitrogen, then sectioned and fixed for histological assessment. Treatment with cyclophosphamide 100 mg/m^2 p.o. was commenced for 14 out of every 28 days. Patients were reviewed weekly for the first 8 weeks and end of study assessment, including tumour size and appropriate re-staging CT scans performed at 12 weeks. Response was assessed according to WHO criteria. Patients with stable or responding disease continued with cyclophosphamide at the discretion of the investigator. Toxicity was graded according to NCI-common toxicity criteria (version 2).
The main toxicity observed in the study was attributed to oral cyclophosphamide with the most frequent non-haematological events described as nausea (9 patients), alopecia (6 patients), headache (5 patients), anorexia (4 patients) and fatigue (4 patients). All of these events were grade I or II by NCI-CTC with the exception of one patient with grade III fatigue. Two patients had clinically significant haematological toxicity with grade III leucopenia and grade II neutropenia. No patients were admitted with neutropenic fever. […] During the study 3 patients with breast cancer experienced serious adverse events (patient 103 hypotension, dysarthria and left sided weakness, patient 104 trismus and tongue oedema and patient 108 deep vein thrombosis, hypotension and dyspnoea). None of the serious adverse events were considered related to MetXia-P450.

[2] = test system: B16 melanoma lung metastases; conditions: tk gene then ganciclovir; immunocompetent but not immunodeficient mice; cited from earlier work
[3] = test system: colon carcinoma derived metastatic rat tumour line; conditions: SC tumour line transfected with cytosine deaminase gene, then 5-fluorocytosine; cited from earlier work

For O=P1(N(CCCl)CCCl)NCCCO1 (stereo not drawn) [cyclophosphamide], the “clinically significant haematological toxicity (grade III leucopenia and grade II neutropenia)” value [1] was “Two”, the fatigue [1] was 4 patients and the “grade III fatigue” value [1] was “one”. It also gave an alopecia ([1]; grade I or II) of 6 patients, an anorexia ([1]; grade I or II) of 4 patients and a headache ([1]; grade I or II) of 5 patients. It also gave a nausea ([1]; grade I or II) of 9 patients.

For Nc1nc(O)c2ncn(COC(CO)CO)c2n1 [ganciclovir], the “B16 melanoma lung metastases” value [2] is given as “marked reduction”.

For Nc1nc(=O)[nH]cc1F [5-fluorocytosine], the “regression in the volume of established liver tumours” value [3] is given as 70%.
